Measured values: patent publication EP0567613B1, “COMPOSITIONS FOR THERAPY AND PREVENTION OF CANCER” (The Government of the United States of America, as …, priority 1991, dated 1993)
Where two headings read alike, the source gives them in different places.

How the values were obtained:
4C8a10 cells = experiment: Malignant phenotype in culture / growth on matrigel; type: cell-based
Procedure: The experimental model involved nonmalignant 4C8a10 cells (revertants of Haras-transformed NIH3T3 fibroblasts). […]
^b Cells were plated on top of matrigel (reconstituted basement membrane) and observed for malignant growth pattern, i.e., active replication, development of characteristic processes, and invasion.

HL-60 = experiment: Cell proliferation (cell number); type: cell-based, human
Procedure: (§1) The adherent cells were detached with trypsin/EDTA and the cell number determined using a hemocytometer. Data points indicate the mean ± S.D. of duplicates from two independent experiments. The cell lines were obtained from the American Type Culture Collection and maintained in RPMI 1640 (HL-60) or Dulbecco's Modified Eagle's Medium (10T1/2) supplemented with 10% heat inactivated fetal calf serum (Gibco Laboratories), 2 mM L-Glutamine, and antibiotics.

10T1/2 = experiment: Cell proliferation (cell number); type: cell-based, mouse; settings: treated for four days
Procedure: as §1

[1] = system: premalignant 10T1/2 cells; experiment: cells
Procedure: C. Quantitation of adipocytosis. Lipids stained with Oil-Red O were extracted with butanol, and the optical density at 510 nm determined.
Lower: Quantitation of adipocytosis. Cells were fixed with 37% formaldehyde and stained with Oil-Red O. The stained intracellular lipid was extracted with butanol, and the optical density was determined using a Titertek Multiskan MC, manufactured by Flow Laboratories, at a wavelength 510 nm.

[2] = system: adipocyte-specific aP2 gene; experiment: Northern blot analysis of aP2 expression; type: cell-based, mouse; settings: treated confluent 10T1/2 cultures
Procedure: Cytoplasmic RNA (20 µg/lane) was subjected to Northern blot analysis using ^32P-labeled specific DNA probes. Ethidium bromide-stained […] indicates the relative amounts of total RNA in each lane. Figure A. Induction of a P2 expression in 10T1/2 cells. […] Figure B. Kinetics of myc inhibition and HLA-A induction in HL-60. […] Figure C. Dose-dependent and specificity of effect.
In an attempt to explore the possible mechanism of action, Northern blot analysis of HL-60 and 10T1/2 cells was performed according to conventional methods. […] The aP2 cDNA probe was labeled with [^32P]dCTP (NEN) using a commercially available random primed DNA labeling kit. Ethidium bromide-stained 28S rRNA indicates the relative amounts of total RNA in each lane.
Expression of the adipocyte-specific aP2 gene was induced within 24 hrs in treated 10T1/2 confluent cultures reaching maximal mRNA levels by 72 hrs.

[3] = system: premalignant 4C8 and 10T1/2 cells; experiment: Prevention of 5-AzadC-induced malignant conversion in culture; type: cell-based; settings: NaPA 0.8-1.6 mg/ml, cells exposed to 5-AzadC
Text: It is known that the treatment of premalignant 4C8 and 10T1/2 cells with carcinogens such as 5-AzadC produces malignant conversion of the respective cells. When 4C8 [Remold: et al., Cancer Research, 51:1-7 (1990)] and 10T1/2 cells were exposed to 5-AzadC, malignant conversion was evident in two days and two weeks, respectively.

DU145 = experiment: Tumor cell growth / proliferation; type: cell-based; settings: Homo sapiens
Procedure: (§2) Studies of depth were performed with two androgenindependent human prostate adenocarcinoma cell lines, PC3 and DU145, established from bone and brain metastases, respectively.

[4] = system: Prostate Adenocarcinoma PC3; experiment: Tumor cell growth / proliferation; type: cell-based; settings: Homo sapiens
Procedure: as §2

[5] = system: primary human skin FS4 fibroblasts; experiment: Growth of normal cells; type: cell-based; settings: Fibroblast, read-out: concentration needed to cause a significant inhibition of growth
Prostatic PC3 Cells = experiment: Tumorigenicity of pretreated cells in nude mice; type: in vivo, athymic nude mice; settings: cells pretreated 1 week at 0.8 mg/ml, 8 weeks later
Text: PC3 cells were pretreated for 1 week in culture and then injected (2 x 10^5 cells/animal) s.c. into 4-5 week-old female athymic nude mice. […] The data in Table 4 are a summary of two independent experiments.

Prostatic Ca LaNCoP = experiment: Tumor cell growth / proliferation; type: cell-based; settings: read-out: % Inhibition by NaPA 0.8 mg/ml
Astrocytoma U343 = experiment: Tumor cell growth / proliferation; type: cell-based
Kaposi's Sarcoma KS = experiment: Tumor cell growth / proliferation; type: cell-based; settings: read-out: % Inhibition by NaPA 0.8 mg/ml
Osteosarcoma KRIB = experiment: Tumor cell growth / proliferation; type: cell-based
Text: (§3) • # 7-10 For effective responses, the tumors may require much higher drug concentrations if used alone.
(§4) A differential effect was seen also in ras-transformed fibrosarcoma V7T, when compared to the parental non-tumorigenic N1H3T3 cells.

Breast Cancer MCF-7 = experiment: Tumor cell growth / proliferation; type: cell-based; settings: Homo sapiens
Text: as §3

Fibrosarcoma RS485 = experiment: Tumor cell growth / proliferation; type: cell-based; settings: read-out: % Inhibition by NaPA 0.8 mg/ml
Text: as §3

[6] = system: Squamous Cancer of Head & Neck A431; experiment: Tumor cell growth / proliferation; type: cell-based; settings: Homo sapiens
Text: as §3

[7] = Cytotoxicity in tissue culture; type: cell-based; settings: tissue culture; read-out: concentration at which cytotoxicity was observed
Text: as §4
(§5) The concentration range found to selectively suppress malignant growth can be readily obtained in the clinical setting without causing significant side effects.

[8] = system: the malignant or the normal cells; experiment: Cytotoxicity in tissue culture; type: cell-based; settings: growth-inhibitory concentrations
Text: as §4, §5

Malignant Melanoma A375 = experiment: Tumor cell growth / proliferation

In the case of `O=C([O-])Cc1ccccc1.[Na+]` [NaPA, sodium phenylacetate], the Growth on matrigel (4C8a10 cells; NaPA 1.5 mg/ml) is reported as “-”, the “development of the malignant phenotype” value (4C8a10 cells; in 5-AzadC treated cultures) is reported as “prevented the development of the malignant phenotype” and the inhibition at 800 µg/mL (HL-60; Homo sapiens, read-out: % Inhibition by NaPA 0.8 mg/ml, HL-60, 0.8 mg/ml) is reported as at most 40%. The cell proliferation (HL-60; treated for four days) was “dose dependent inhibition of cell proliferation”, the cell proliferation (10T1/2) was “dose dependent inhibition of cell proliferation” and the cytotoxic effect ([1]; 800 µg/ml) was “totally free of cytotoxic effect”. For the same compound, the “Differentiation at 1 mM” value ([1]; 1 mM, sodium salts) was 65%, the “adipocyte conversion, share of the cell population” value ([1]; 10T1/2 model) was “over 80%” and the DC50 ([1]; Mus musculus, Adipocyte, read-out: DC50, concentration of compound causing 50% differentiation) was 700 µM. For the same compound, the “time to induction of aP2 gene expression” value [2] was at most 24 h, the “time to maximal aP2 mRNA levels” value [2] was at most 72 h and the “appearance of the malignant phenotype (cell morphology, contact inhibition, anchorage dependent growth)” value [3] was “prevented the appearance of the malignant phenotype”. It also gave an IC50 (DU145; DU-145, growth arrest, read-out: IC50) of 600 to 800 µg/mL, an inhibition at 800 µg/mL (DU145; DU-145, read-out: % Inhibition by NaPA 0.8 mg/ml, 0.8 mg/ml) of at least 50% and an IC50 (DU145; DU-145, read-out: concentration causing about 50% inhibition of growth) of 400 to 800 µg/mL. For the same compound, the IC50 [4] was 600 to 800 µg/mL, the viability at 800 µg/mL ([4]; PC-3) was over 95% and the activity at 800 µg/mL ([4]; PC-3, read-out: Growth) was 59.6%. The IC50 ([4]; PC-3, read-out: concentration causing about 50% inhibition of growth) was 400 to 800 µg/mL, the inhibition at 800 µg/mL ([4]; read-out: % Inhibition by NaPA 0.8 mg/ml) was at least 50% and the minimal effective concentration [5] was 2000 to 4000 µg/mL. The Incidence (Prostatic PC3 Cells; 2 x 10^5 cells/animal s.c.) was 1/7, the Diameter (Prostatic PC3 Cells) was 2 mm ± S.D and the Weight (Prostatic PC3 Cells) was 50 mg. For the same compound, the inhibition at 800 µg/mL (Prostatic Ca LaNCoP) was over 50%, the IC50 (Astrocytoma U343; astrocytoma 343, read-out: concentration causing about 50% inhibition of growth) was 400 to 800 µg/mL and the inhibition at 800 µg/mL (Astrocytoma U343; read-out: % Inhibition by NaPA 0.8 mg/ml, U343, 0.8 mg/ml) was at least 50%. It also gave an inhibition at 800 µg/mL (Kaposi's Sarcoma KS) of at most 40%, an inhibition at 800 µg/mL (Osteosarcoma KRIB; read-out: % Inhibition by NaPA 0.8 mg/ml, 0.8 mg/ml) of at most 30% and an IC50 (Osteosarcoma KRIB; read-out: concentration causing about 50% inhibition of growth) of 1000 to 1500 µg/mL. For the same compound, the inhibition at 800 µg/mL (Breast Cancer MCF-7; MCF7, read-out: % Inhibition by NaPA 0.8 mg/ml, MCF-7, 0.8 mg/ml) was at most 30%, the IC50 (Breast Cancer MCF-7; MCF7, breast tumor MCS-7, read-out: concentration causing about 50% inhibition of growth) was 1000 to 1500 µg/mL and the inhibition at 800 µg/mL (Fibrosarcoma RS485) was at most 30%. The inhibition at 800 µg/mL ([6]; A-431, read-out: % Inhibition by NaPA 0.8 mg/ml, 0.8 mg/ml) was under 30%, the IC50 ([6]; A-431, read-out: concentration causing about 50% inhibition of growth) was 1000 to 1500 µg/mL and the MCC [7] was over 3000 µg/mL. For the same compound, the “toxicity of the treatment to cells” value [8] was “not toxic to either the malignant or the normal cells”, the “concentration causing about 50% inhibition of growth” value (Malignant Melanoma A375; A375) was 0.4 to 0.8 mg/mL and the “% Inhibition by NaPA 0.8 mg/ml” value (Malignant Melanoma A375; A375, 0.8 mg/ml, within one week of treatment) was at least 70%. For the same compound, the Growth (Malignant Melanoma A375; NaPA 400 µg/ml) was 63.3 % of control and the Viability (Malignant Melanoma A375; NaPA 400 µg/ml) was over 95%.
